For the assay, the target named is T1, G1 APOL1 (Homo sapiens, UniProt O14791, I384M/S342G).
T1 construct: expressed in transfected cells
T1 sequence (O14791 28-398 S342G/I384M): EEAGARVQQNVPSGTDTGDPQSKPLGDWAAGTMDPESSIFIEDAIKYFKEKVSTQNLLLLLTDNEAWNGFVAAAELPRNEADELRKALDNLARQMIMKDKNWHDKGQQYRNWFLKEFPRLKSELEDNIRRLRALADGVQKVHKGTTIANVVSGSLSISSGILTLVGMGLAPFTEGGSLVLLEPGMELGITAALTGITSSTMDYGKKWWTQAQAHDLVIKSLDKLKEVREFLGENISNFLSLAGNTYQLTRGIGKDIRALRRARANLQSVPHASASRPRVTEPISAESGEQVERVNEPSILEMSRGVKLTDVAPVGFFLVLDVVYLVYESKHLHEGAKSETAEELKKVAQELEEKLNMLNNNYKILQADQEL
The assay can be described thus: Acute APOL1 Thallium Assay with inducible stable clones of HEK 293 cells. The class given is cell-based. The conditions noted are these: HEK 293 T-Rex cells expressing G1 APOL1; read-out: Thallium Assay (IC50). The procedure, abridged:
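Tetracycline-inducible HEK293 T-Rex clone G1 DC3.25 expressing G1 APOL1, plated at 26000 cells/well in Opti-MEM with tetracycline induction. APOL1 pore activity read on FLIPR as fluorescence increase from Tl+ influx into cells loaded with a Tl+-sensitive AM-ester dye.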

With `NC(=O)[C@H]1C[C@H](c2c(-c3ccc(F)cc3)[nH]c3c(F)cc(F)cc32)C1` [Compound 169], the IC50 (usually the concentration at which inhibition is half-maximal) lay in the range of 0.25 to 1 µM. As for `O=C([C@H]1C[C@H](c2c(-c3ccc(F)cc3)[nH]c3c(F)cc(F)cc32)C1)N1CCCC1CCO` (stereo partly shown) [Compound 101], the IC50 is > 1 µM. Regarding `O=C([C@H]1C[C@H](c2c(-c3ccc(F)cc3)[nH]c3c(F)cc(F)cc32)C1)N1CCC[C@@H](CO)C1` [Compound 109], the IC50 is > 1 µM. `CC1(C)CN(C(=O)[C@H]2C[C@H](c3c(-c4ccc(F)cc4)[nH]c4c(F)cc(F)cc43)C2)CCC1O` (stereo partly shown) [Compound 114]: the IC50 was > 1 µM. As for `CCN(CCO)C(=O)[C@H]1C[C@H](c2c(-c3ccc(F)cc3)[nH]c3c(F)cc(F)cc32)C1` [Compound 124], the IC50 was 0.25 to 1 µM. On to `O=C([C@H]1C[C@H](c2c(-c3ccc(F)cc3)[nH]c3c(F)cc(F)cc32)C1)N1CCCC[C@@H]1CO` [Compound 107], for which the IC50 was > 1 µM. For `O=C([C@H]1C[C@H](c2c(-c3ccc(F)cc3)[nH]c3c(F)cc(F)cc32)C1)N1CCC(CCO)CC1` [Compound 134], the IC50 is > 1 µM. With `O=C([C@H]1C[C@H](c2c(-c3ccc(F)cc3)[nH]c3c(F)cc(F)cc32)C1)N1CCOC(O)C1` (stereo partly shown) [Compound 115] the figure was 0.25 to 1 µM; with `O=C(N[C@@H](CO)C(F)(F)F)[C@H]1C[C@H](c2c(-c3ccc(F)cc3)[nH]c3c(F)cc(F)cc32)C1` [Compound 163], 0.25 to 1 µM; with `O=C(NCc1cocn1)[C@H]1C[C@H](c2c(-c3ccc(F)cc3)[nH]c3c(F)cc(F)cc32)C1` [Compound 168], 0.25 to 1 µM. On to `O=C([C@H]1C[C@H](c2c(-c3ccc(F)cc3)[nH]c3c(F)cc(F)cc32)C1)N1CC(OCC2CCCO2)C1` (stereo partly shown) [Compound 136], for which the IC50 is > 1 µM. As to `O=C(NCCCO)[C@H]1C[C@H](c2c(-c3ccc(F)cc3)[nH]c3c(F)cc(F)cc32)C1` [Compound 104], the IC50 is 0.25 to 1 µM. Regarding `CC1(C)CN(C(=O)[C@H]2C[C@H](c3c(-c4ccc(F)cc4)[nH]c4c(F)cc(F)cc43)C2)CCN1C(=O)[C@H]1C[C@@](C)(O)C1` [Compound 130], the IC50 is > 1 µM.

On to `O=C([C@H]1C[C@H](c2c(-c3ccc(F)cc3)[nH]c3c(F)cc(F)cc32)C1)N1CCCCC1CO` (stereo partly shown) [Compound 145], for which the IC50 was > 1 µM. `CNC(=O)C(C)NC(=O)[C@H]1C[C@H](c2c(-c3ccc(F)cc3)[nH]c3c(F)cc(F)cc32)C1` (mixture of isomers) [Compound 9]: the half-maximal inhibitory concentration (IC50) is 0.25 to 1 µM.

With `O=C(O)CNC(=O)[C@H]1C[C@H](c2c(-c3ccc(F)cc3)[nH]c3c(F)cc(F)cc32)C1` [Compound 10], the IC50 is > 1 µM.

Consider `CC(O)CNC(=O)[C@H]1C[C@H](c2c(-c3ccc(F)cc3)[nH]c3c(F)cc(F)cc32)C1` (stereo partly shown) [Compound 167], for which the IC50 was 0.25 to 1 µM.

Take `NC(=O)[C@@H]1CCN(C(=O)[C@H]2C[C@H](c3c(-c4ccc(F)cc4)[nH]c4c(F)cc(F)cc43)C2)C1` [Compound 135]: the IC50 was > 1 µM. Consider `O=C(NC1CC(O)C1)[C@H]1C[C@H](c2c(-c3ccc(F)cc3)[nH]c3c(F)cc(F)cc32)C1` (stereo partly shown) [Compound 5], for which the half-inhibitory concentration (IC50) was in the range of 0.25 to 1 µM. Turning to `CCN(C(=O)[C@H]1C[C@H](c2c(-c3ccc(F)cc3)[nH]c3c(F)cc(F)cc32)C1)C(C)CO` (mixture of isomers) [Compound 111], the IC50 was > 1 µM. As for `CC1(C)CN(C(=O)[C@H]2C[C@H](c3c(-c4ccc(F)cc4)[nH]c4c(F)cc(F)cc43)C2)CC1O` (stereo partly shown) [Compound 102], the IC50 was > 1 µM. In the case of `NC(=O)[C@H](CO)NC(=O)[C@H]1C[C@H](c2c(-c3ccc(F)cc3)[nH]c3c(F)cc(F)cc32)C1` [Compound 144], the IC50 was in the range of 0.25 to 1 µM. As to `O=C([C@H]1C[C@H](c2c(-c3ccc(F)cc3)[nH]c3c(F)cc(F)cc32)C1)N1C2CCC(C2)C1CO` (stereo partly shown) [Compound 97], the IC50 was > 1 µM. Regarding `C[C@@H](O)[C@H](CO)NC(=O)[C@H]1C[C@H](c2c(-c3ccc(F)cc3)[nH]c3c(F)cc(F)cc32)C1` [Compound 155], the IC50 is > 1 µM. Take `O=C1C[C@@H](NC(=O)[C@H]2C[C@H](c3c(-c4ccc(F)cc4)[nH]c4c(F)cc(F)cc43)C2)C(=O)N1` [Compound 166]: the IC50 is < 0.25 µM. `CC(C)[C@@H](CO)NC(=O)[C@H]1C[C@H](c2c(-c3ccc(F)cc3)[nH]c3c(F)cc(F)cc32)C1` [Compound 141]: the IC50 is > 1 µM. Take `CN(C)C[C@@H]1CCN(C(=O)[C@H]2C[C@H](c3c(-c4ccc(F)cc4)[nH]c4c(F)cc(F)cc43)C2)C[C@H]1O` [Compound 110]: the IC50 was > 1 µM. On to `O=C([C@H]1C[C@H](c2c(-c3ccc(F)cc3)[nH]c3c(F)cc(F)cc32)C1)N1C[C@@H]2[C@@H](CO)[C@@H]2C1` [Compound 99], for which the IC50 was > 1 µM. As to `O=C([C@H]1C[C@H](c2c(-c3ccc(F)cc3)[nH]c3c(F)cc(F)cc32)C1)N(CCOCCO)C1CCC1` [Compound 121], the IC50 was > 1 µM. As to `O=C([C@H]1C[C@H](c2c(-c3ccc(F)cc3)[nH]c3c(F)cc(F)cc32)C1)N1CC(n2cccn2)C1` [Compound 96], the IC50 is > 1 µM.

As to `O=C([C@H]1C[C@H](c2c(-c3ccc(F)cc3)[nH]c3c(F)cc(F)cc32)C1)N1C[C@H]2C[C@@]2(CO)C1` [Compound 98], the IC50 is > 1 µM.

Turning to `O=C([C@H]1C[C@H](c2c(-c3ccc(F)cc3)[nH]c3c(F)cc(F)cc32)C1)N1CCN[C@H](CO)C1` [Compound 161], the IC50 is > 1 µM. For the molecule `CC(C)(NC(=O)[C@H]1C[C@H](c2c(-c3ccc(F)cc3)[nH]c3c(F)cc(F)cc32)C1)C(N)=O` [Compound 11], the IC50 lay within 0.25 to 1 µM.

Consider `O=C([C@H]1C[C@H](c2c(-c3ccc(F)cc3)[nH]c3c(F)cc(F)cc32)C1)N1CCCC(CO)C1` (stereo partly shown) [Compound 147], for which the IC50 was > 1 µM. As for `O=C(NCc1cnco1)[C@H]1C[C@H](c2c(-c3ccc(F)cc3)[nH]c3c(F)cc(F)cc32)C1` [Compound 170], the IC50 lay within 0.25 to 1 µM. In the case of `O=C([C@H]1C[C@H](c2c(-c3ccc(F)cc3)[nH]c3c(F)cc(F)cc32)C1)N1CCOC(CO)C1` (stereo partly shown) [Compound 148], the IC50 was > 1 µM. Regarding `C[C@H]1CN(C(=O)[C@H]2C[C@H](c3c(-c4ccc(F)cc4)[nH]c4c(F)cc(F)cc43)C2)CC[C@@H]1O` [Compound 116], the IC50 is > 1 µM. As for `O=C([C@H]1C[C@H](c2c(-c3ccc(F)cc3)[nH]c3c(F)cc(F)cc32)C1)N1CCCC(O)C1` (stereo partly shown) [Compound 150], the IC50 is > 1 µM. As for `O=C(NC1(CO)CCC1)[C@H]1C[C@H](c2c(-c3ccc(F)cc3)[nH]c3c(F)cc(F)cc32)C1` [Compound 6], the 50% inhibitory concentration (IC50) was < 0.25 µM.

Consider `O=C([C@H]1C[C@H](c2c(-c3ccc(F)cc3)[nH]c3c(F)cc(F)cc32)C1)N(CCO)CCCO` [Compound 117], for which the IC50 is > 1 µM. Regarding `O=C(N[C@H](CO)C(F)(F)F)[C@H]1C[C@H](c2c(-c3ccc(F)cc3)[nH]c3c(F)cc(F)cc32)C1` [Compound 164], the IC50 was 0.25 to 1 µM.

As for `O=C(NCC1(O)CCC1)[C@H]1C[C@H](c2c(-c3ccc(F)cc3)[nH]c3c(F)cc(F)cc32)C1` [Compound 143], the IC50 is > 1 µM. In the case of `O=C([C@H]1C[C@H](c2c(-c3ccc(F)cc3)[nH]c3c(F)cc(F)cc32)C1)N1CCOCC1CCO` (stereo partly shown) [Compound 113], the IC50 is > 1 µM. Regarding `O=C(NCCOCCO)[C@H]1C[C@H](c2c(-c3ccc(F)cc3)[nH]c3c(F)cc(F)cc32)C1` [Compound 125], the IC50 was < 0.25 µM.

Regarding `CCC(O)(CCCO)CNC(=O)[C@H]1C[C@H](c2c(-c3ccc(F)cc3)[nH]c3c(F)cc(F)cc32)C1` (stereo partly shown) [Compound 119], the IC50 is > 1 µM.

As for `CC(CO)N1CCN(C(=O)[C@H]2C[C@H](c3c(-c4ccc(F)cc4)[nH]c4c(F)cc(F)cc43)C2)CC1` (mixture of isomers) [Compound 122], the IC50 was > 1 µM. With `O=C([C@H]1C[C@H](c2c(-c3ccc(F)cc3)[nH]c3c(F)cc(F)cc32)C1)N1CCCC[C@H]1CO` [Compound 146] the figure was > 1 µM; with `CO[C@H]1CCN(C(=O)[C@H]2C[C@H](c3c(-c4ccc(F)cc4)[nH]c4c(F)cc(F)cc43)C2)C1` [Compound 95], > 1 µM; with `CN(CC1(CO)CCOCC1)C(=O)[C@H]1C[C@H](c2c(-c3ccc(F)cc3)[nH]c3c(F)cc(F)cc32)C1` [Compound 120], > 1 µM. For the molecule `O=C1CC[C@@H](NC(=O)[C@H]2C[C@H](c3c(-c4ccc(F)cc4)[nH]c4c(F)cc(F)cc43)C2)C1` [Compound 157], the IC50 was > 1 µM. Regarding `C[C@H](CO)N(C)C(=O)[C@H]1C[C@H](c2c(-c3ccc(F)cc3)[nH]c3c(F)cc(F)cc32)C1` [Compound 142], the IC50 was 0.25 to 1 µM. With `O=C1C[C@H](NC(=O)[C@H]2C[C@H](c3c(-c4ccc(F)cc4)[nH]c4c(F)cc(F)cc43)C2)C(=O)N1` [Compound 165] the figure was < 0.25 µM. As to `O=C([C@H]1C[C@H](c2c(-c3ccc(F)cc3)[nH]c3c(F)cc(F)cc32)C1)N1CCC[C@@H](O)C1` [Compound 149], the IC50 was in the range of 0.25 to 1 µM. Consider `O=C([C@H]1C[C@H](c2c(-c3ccc(F)cc3)[nH]c3c(F)cc(F)cc32)C1)N1CCC2(COC2)C1` [Compound 103], for which the IC50 was > 1 µM. With `CC(O)CN(CCO)C(=O)[C@H]1C[C@H](c2c(-c3ccc(F)cc3)[nH]c3c(F)cc(F)cc32)C1` (mixture of isomers) [Compound 129] the figure was 0.25 to 1 µM.

The record behind these values is patent publication US12116343B2, “Inhibitors of APOL1 and methods of using same” (Vertex Pharmaceuticals Incorporated, priority 2020, dated 2024).
